The source of these data is paper PMC9369794 (Molecules, 2022).

A short description of series [1]: Study of aggregation by UV-Vis spectrophotometry. Format: physicochemical. As to conditions: for change of UV spectrum with increasing ratio of PBS: starting from THF solutions. The procedure, abridged: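 Conjugates dissolved in THF and diluted with THF or THF-PBS mixtures (1:1, 1:3) at identical carotenoid concentration; separately, 2.5∙10−4 M DMSO stocks added to PBS to final 0.3125–5 μM carotenoid. UV-Vis spectra recorded to follow band shifts and fine-structure changes; DMSO-PBS solutions also examined by DLS.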

Series [2] can be described thus: Hydrodynamic diameter and colloidal stability of aggregates by dynamic light scattering. Format: physicochemical. The following applies: for mean size (hydrodynamic diameter) / zeta potential: 37 °C; for PDI: sd^2/mean size^2. The procedure, abridged: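 Hydrodynamic diameter (number-weighted; PDI as sd^2/mean size^2) and zeta potential were measured by DLS at 173° scattering angle. Samples, 0.3125–5 µM DMSO solutions diluted into PBS, were examined after 6 min incubation at 37 °C.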

A short description of series [3]: TEAC assay using ABTS radical. As to conditions: 6 min, ratio of slopes to trolox (melatonin dissolved in EtOH); for TEAC from DMSO: stock in DMSO diluted with PBS pH 7.4, 37 °C; for TEAC from THF: stock in THF diluted with PBS pH 7.4, 37 °C.
A short description of a further series: Water dispersibility. Format: physicochemical. The following applies: distilled water, sonication. As to the method:
About 2 mg of the examined substance was dispersed in 40 mL of distilled water and the suspension was sonicated for 2 min. The addition of water was continued with 10 mL portions, after each portion the mixture was sonicated for 2 min. This process was continued till a homogenous solution was observed by naked eye. Then, the solution was let to stand for an hour to inspect any precipitate formation, but no changes occurred in any of the cases.

A short description of series [4]: FRAP assay for the antioxidant capacity. The following applies: stock in THF, acetate buffer pH 3.0, 37 °C, 15 min; ratio of slopes to trolox (melatonin in EtOH). Also on record: key to FRAP: slope of concentration-absorbance line divided by Trolox slope. The procedure, abridged: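 Fe^3+→Fe^2+ reduction by antioxidants (THF stocks) in FRAP reagent (FeCl3/TPTZ, 300 mM acetate buffer pH 3.0), 15 min at 37 °C in the dark. Absorbance at 600 nm measured in triplicate at 0-17.5 μM final. FRAP value = slope of absorbance-concentration line divided by Trolox slope.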

Series [5] is described as follows: BBB-specific permeability assay (BBB-PAMPA). Format: in vitro ADME. As to conditions: PBS pH 7.4, 37 °C, read-out: BBB-PAMPA Pe. As to the method:
In vitro, blood-brain barrier-specific (BBB) permeability studies were carried out using the PAMPA technique. First, solutions with the nominal concentration of 250 μM were prepared as described in Section 3.1. The solutions were shaken for 1 h at room temperature, at 300 rpm. For preparing the artificial BBB-specific membrane 16 mg BPLE and 8 mg cholesterol were dissolved in 600 μL dodecane. Each well of the donor plate (MultiscreenTM-IP, MAIPNTR10, pore size […], Merck kGaA) was coated with 5 μL lipid solution, and fitted into the acceptor plate containing 300 μL PBS (pH 7.4) with 2.5% DMSO, and 150–150 μL of the PBS solutions (made from the DMSO stock solutions) were put on the donor plate’s artificial membrane. The sandwich plate system was covered with a tissue of wet paper and a plastic lid to avoid evaporation of the solvent, and it was incubated at 37 °C for 4 h. In the end, the donor solutions were filtrated (Vacuum Manifold, Merck kGaA), and the initial 250 μM solutions (cD(0)), the donor (cD(t)) and acceptor solution (cA(t)) were analyzed by a Multiskan Sky UV-plate-reader (Thermo Scientific) in the wavelength range of 250–700 nm, with 1 nm steps.
BBB permeability was calculated using the effective permeability equation used for iso-pH conditions described by A. Avdeef:(3) Pe=−2.303/A·(t−τss)·(1/1+rv)·lg[−rv+(1+rv/1−MR)·cD(t)/cD(0)] […]

Series [6] is described as follows: Kinetic solubility in PBS pH 7.4. Format: physicochemical. The following applies: aqueous buffer, kinetic from dmso stock, kinetic solubility after 2 h, at 37 °C in PBS, nominal 250 μM, read-out: Kin.Sol. As to the method:
On a 96-well polypropylene plate (Greiner bio-one) 7.5 μL stock solutions were added to 292.5 μL PBS (pH 7.4) to make a solution with the nominal concentration of 250 μM. For each sample 3 replicates were measured. […] After that, each sample was transferred into a filter plate (MSSBLPC, Multiscreen Filter plate, Merck kGaA) and filtered (Vaccum Manifold, Merck kGaA, Darmstadt, Germany). The filtrates were transferred into UV-Star microplates (Greiner bio-one) and acetonitrile (AcN) was added to each well to avoid precipitation. The final solvent ratio was AcN:PBS 70:30. UV-Vis spectra were collected for each replicate by a Multiskan Sky UV-plate reader (Thermo Scientific, Waltham, MA, USA) in a wavelength range of 250–700 nm, with 1 nm steps. After blank substraction, the kinetic solubility of the samples was determined based on absorption at λmax using a 5-point calibration curve for each sample recorded in 70:30 AcN:PBS solvent.
Limit of detection (LOD) and limit of quantification (LOQ) were calculated with Equations (1) and (2) respectively, based on UV-Vis spectral data:(1) LOD=3.3×σ/s (2) LOQ=10×σ/s where the σ value in the equations stands for the standard deviation of the absorption base line at 700 nm (where no sample-specific absorption was observed). The s value is the slope of the calibration curve recorded for each sample based on their absorption at λmax (Table 4.)

Where [7] appears, read: 0.3125 μM in PBS from DMSO stock.
The mark [8] stands for this setting: 0.625 μM in PBS from DMSO stock.

Values after ≈ are worked out from the molar mass of the structure shown.

For `CC1=C[C@H](OC(=O)CCC(=O)O)CC(C)(C)[C@H]1/C=C/C(C)=C/C=C/C(C)=C/C=C/C=C(C)/C=C/C=C(C)/C=C/C1=C(C)C[C@@H](OC(=O)CCC(=O)O)CC1(C)C` [Compound 10, Lutein bissuccinate], the “change of UV spectrum with increasing ratio of PBS” value in series [1] is given as “did not cause much change”. Also, the “mean size (hydrodynamic diameter)” value is on record as 453.5 nm in series [2] (setting [7]); 215.4 nm in series [2] (setting [8]); 263.3 nm in series [2] (1.25 μM in PBS from DMSO stock); 123.1 nm in series [2] (2.5 μM in PBS from DMSO stock); 143.8 nm in series [2] (3.75 μM in PBS from DMSO stock); 29.2 nm in series [2] (5 μM in PBS from DMSO stock). The zeta potential in series [2] (setting [7]) was found to be 103.0 mV; in series [2] (setting [8]) it was 44.4 mV; in series [2] (1.25 μM in PBS from DMSO stock) it was 89.6 mV; in series [2] (2.5 μM in PBS from DMSO stock) it was 0.0 mV; in series [2] (3.75 μM in PBS from DMSO stock), 0.0 mV; in series [2] (5 μM in PBS from DMSO stock) it was 20.3 mV. Further, the PDI in series [2] (0.3125 μM in PBS) came out at 0.0235; in series [2] (0.625 μM in PBS), 0.0320; in series [2] (1.25 μM in PBS) it was 0.0608; in series [2] (2.5 μM in PBS), 0.0108; in series [2] (3.75 μM in PBS) it was 0.0121; in series [2] (5 μM in PBS), 0.0249. Further, the “TEAC from DMSO” value in series [3] was 1.49. Moreover, in series [3], the “TEAC from THF” value was determined as 2.356. The “Water Dispersibility” value in “Water dispersibility” is given as 1.5 mg/100 mL. Also, the FRAP in series [4] was found to be 0.184.

In the case of `CC1=C(/C=C/C(C)=C/C=C/C(C)=C/C=C/C=C(C)/C=C/C=C(C)/C=C/C2=C(C)C[C@@H](OC(=O)CCC(=O)O)CC2(C)C)C(C)(C)C[C@H](O)C1` [Compound 11, Zeaxanthin monossuccinate], the “type of aggregates formed” value in series [1] (from THF:aqueous solutions) was “J-type (head-to-tail) aggregates”. In addition, the “change of UV spectrum with increasing ratio of PBS” value in series [1] is listed as “bathochromic shift”. Besides, the “mean size (hydrodynamic diameter)” value in series [2] (setting [7]) was determined as 30.98 nm; in series [2] (setting [8]), 277.80 nm; in series [2] (1.25 μM in PBS from DMSO stock) it was 25.09 nm; in series [2] (2.5 μM in PBS from DMSO stock), 32.93 nm; in series [2] (3.75 μM in PBS from DMSO stock), 17.71 nm; in series [2] (5 μM in PBS from DMSO stock), 150.00 nm. Further, the zeta potential in series [2] (setting [7]) is on record as 51.7 mV; in series [2] (setting [8]), 123.0 mV; in series [2] (1.25 μM in PBS from DMSO stock) it was 80.5 mV; in series [2] (2.5 μM in PBS from DMSO stock), 80.6 mV; in series [2] (3.75 μM in PBS from DMSO stock), 77.3 mV; in series [2] (5 μM in PBS from DMSO stock), −23.5 mV. Also, the PDI in series [2] (0.3125 μM in PBS) is listed as 0.0256; in series [2] (0.625 μM in PBS) it was 0.0264; in series [2] (1.25 μM in PBS), 0.0310; in series [2] (2.5 μM in PBS), 0.0420; in series [2] (3.75 μM in PBS), 0.1357; in series [2] (5 μM in PBS), 0.0297. In series [3], the “TEAC from DMSO” value came out at 0.81. Besides, the “TEAC from THF” value in series [3] is recorded as 1.056. Moreover, the “Water Dispersibility” value in the series “Water dispersibility” is reported as “less than 0.3 mg/100 mL”. The FRAP in series [4] came to 0.145.

As to `COc1ccc2[nH]cc(CCNC(C)=O)c2c1` [Melatonin, melatonin, reference compound], in series [5], the Papp at 4 h, 250 μM amounted to 2.97 ± 1.18 ×10⁻⁶ cm/s. The solubility kinetic at 2 h in series [6] turned out to be 123 ± 9.4 µM (≈ 28.6 µg/mL).
